{"source": "paper PMC12692861", "about": "“Biotin-Linked Ursolic Acid Conjugates as Selective Anticancer Agents and Target-Identification Tools for Cancer Therapy” (Molecules, 2025)", "experiment_in_all_cases": "Streptavidin pulldown proteomics (LC-MS/MS), MB49 cells", "assay_type_in_all_cases": "binding, murine", "details_in_all_cases": "MB-49, 50 µM", "key": {"[1]": {"biological_target": "Filamin-A (FLNA) (Mus musculus, UniProt Q8BTM8)", "sequence (Q8BTM8 whole entry)": "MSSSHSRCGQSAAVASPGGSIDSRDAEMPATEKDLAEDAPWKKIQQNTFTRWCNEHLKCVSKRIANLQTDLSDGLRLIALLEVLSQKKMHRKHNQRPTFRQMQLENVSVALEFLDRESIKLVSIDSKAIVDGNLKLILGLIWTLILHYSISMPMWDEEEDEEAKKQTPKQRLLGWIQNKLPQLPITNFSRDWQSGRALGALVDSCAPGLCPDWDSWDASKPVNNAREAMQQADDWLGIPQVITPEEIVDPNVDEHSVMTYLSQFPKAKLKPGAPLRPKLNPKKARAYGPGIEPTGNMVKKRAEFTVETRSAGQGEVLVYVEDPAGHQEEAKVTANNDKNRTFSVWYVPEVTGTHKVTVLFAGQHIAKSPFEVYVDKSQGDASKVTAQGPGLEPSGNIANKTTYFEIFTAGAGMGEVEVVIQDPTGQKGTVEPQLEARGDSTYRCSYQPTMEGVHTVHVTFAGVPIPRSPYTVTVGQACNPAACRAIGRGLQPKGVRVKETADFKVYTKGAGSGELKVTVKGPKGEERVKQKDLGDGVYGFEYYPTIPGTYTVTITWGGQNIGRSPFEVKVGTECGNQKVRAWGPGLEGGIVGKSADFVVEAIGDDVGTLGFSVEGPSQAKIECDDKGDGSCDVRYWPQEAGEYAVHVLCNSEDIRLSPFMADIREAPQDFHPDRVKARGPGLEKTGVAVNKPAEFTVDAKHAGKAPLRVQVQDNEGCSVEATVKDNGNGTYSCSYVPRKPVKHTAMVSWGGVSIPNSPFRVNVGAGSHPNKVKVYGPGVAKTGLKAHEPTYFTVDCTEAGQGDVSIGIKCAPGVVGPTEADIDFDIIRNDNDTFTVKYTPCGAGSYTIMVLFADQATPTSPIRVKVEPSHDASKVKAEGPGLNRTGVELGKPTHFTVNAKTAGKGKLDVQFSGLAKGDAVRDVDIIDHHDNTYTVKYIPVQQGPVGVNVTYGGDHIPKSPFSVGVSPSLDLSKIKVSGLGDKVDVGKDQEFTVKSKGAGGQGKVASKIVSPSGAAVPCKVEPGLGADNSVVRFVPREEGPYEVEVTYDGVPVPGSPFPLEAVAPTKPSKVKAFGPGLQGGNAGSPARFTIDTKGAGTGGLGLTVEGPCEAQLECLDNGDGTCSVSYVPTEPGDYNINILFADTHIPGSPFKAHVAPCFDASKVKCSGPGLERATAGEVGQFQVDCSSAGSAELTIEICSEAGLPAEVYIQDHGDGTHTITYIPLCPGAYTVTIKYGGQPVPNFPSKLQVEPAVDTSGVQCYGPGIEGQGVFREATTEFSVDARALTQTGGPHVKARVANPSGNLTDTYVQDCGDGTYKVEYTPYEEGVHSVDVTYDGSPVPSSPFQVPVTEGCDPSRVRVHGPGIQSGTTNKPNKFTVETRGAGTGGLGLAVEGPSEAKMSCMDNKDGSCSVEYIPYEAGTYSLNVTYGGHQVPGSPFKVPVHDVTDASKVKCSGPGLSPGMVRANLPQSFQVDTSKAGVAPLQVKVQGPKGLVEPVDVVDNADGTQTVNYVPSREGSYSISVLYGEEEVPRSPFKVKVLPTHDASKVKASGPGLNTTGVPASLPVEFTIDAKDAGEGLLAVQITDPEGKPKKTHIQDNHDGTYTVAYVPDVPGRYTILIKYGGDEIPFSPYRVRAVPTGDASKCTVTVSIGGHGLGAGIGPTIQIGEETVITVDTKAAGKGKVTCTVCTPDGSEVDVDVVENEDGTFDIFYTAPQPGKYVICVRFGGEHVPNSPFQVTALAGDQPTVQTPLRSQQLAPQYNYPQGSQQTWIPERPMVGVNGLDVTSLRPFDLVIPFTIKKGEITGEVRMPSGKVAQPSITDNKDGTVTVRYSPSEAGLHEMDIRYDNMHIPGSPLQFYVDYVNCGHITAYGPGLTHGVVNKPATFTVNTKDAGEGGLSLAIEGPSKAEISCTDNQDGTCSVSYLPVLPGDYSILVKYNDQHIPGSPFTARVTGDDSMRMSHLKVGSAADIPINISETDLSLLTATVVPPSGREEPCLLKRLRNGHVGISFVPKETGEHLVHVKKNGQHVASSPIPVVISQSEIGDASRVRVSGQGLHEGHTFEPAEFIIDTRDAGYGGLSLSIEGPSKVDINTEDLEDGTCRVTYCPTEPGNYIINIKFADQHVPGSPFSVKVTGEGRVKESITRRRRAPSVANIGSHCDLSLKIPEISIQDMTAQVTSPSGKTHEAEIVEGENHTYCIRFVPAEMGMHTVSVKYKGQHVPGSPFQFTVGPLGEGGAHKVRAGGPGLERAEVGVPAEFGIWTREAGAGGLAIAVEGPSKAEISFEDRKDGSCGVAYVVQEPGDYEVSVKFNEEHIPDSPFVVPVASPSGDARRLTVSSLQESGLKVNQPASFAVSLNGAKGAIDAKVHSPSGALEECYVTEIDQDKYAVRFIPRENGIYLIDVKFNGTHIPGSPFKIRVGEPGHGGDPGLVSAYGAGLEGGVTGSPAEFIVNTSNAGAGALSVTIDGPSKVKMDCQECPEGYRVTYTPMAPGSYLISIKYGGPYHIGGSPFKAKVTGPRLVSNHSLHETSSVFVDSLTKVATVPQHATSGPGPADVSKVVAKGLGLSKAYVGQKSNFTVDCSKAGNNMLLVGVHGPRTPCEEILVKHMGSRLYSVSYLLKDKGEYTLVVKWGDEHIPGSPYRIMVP", "description": "(§1) We used proteomics to identify potential molecular targets of 5c. A pulldown assay with streptavidin-agarose-coated magnetic beads was performed. Briefly, 5637 and MB49 cells were incubated with 50 µM 5c for 10 min and 1 h. After incubation, the cells were rinsed three times with cold phosphate-buffered saline (PBS), and cell lysates were prepared and clarified by centrifugation to remove cellular debris, including nuclei. The clarified lysates were incubated with streptavidin-coated magnetic beads to selectively bind biotinylated contents. Bound proteins were separated from unbound proteins through thorough bead washing. Proteins attached to the beads were eluted and analyzed on an Orbitrap Fusion Tribrid mass spectrometer (Thermo Scientific, New York, NY, USA) coupled with an Ultimate 3000 nano-UPLC system. Samples were trapped on a PepMap100 C18 trap column (5 µm, 0.3 × 5 mm) and separated on a PepMap RSLC C18 column (2 µm, 75 µm × 150 mm) using a gradient from 2 to 40% acetonitrile with 0.1% formic acid over 120 min at […] and 40 °C. MS data were acquired in positive mode using data-dependent acquisition (DDA), with precursor scans at 120,000 FWHM (400–2000 m/z), and MS/MS scans in top-speed mode (3 s cycle) using HCD fragmentation (NCE 32%). Proteins were identified and quantified based on peptide spectral matches (PSMs), and fold enrichment compared to controls was calculated to evaluate interaction strength.\n(§2) The 5637 and MB49 cells were cultured and treated with higher concentrations of 5c (50 µM) for short period of times (10 min & 60 min) followed by whole cell lysis (WCL) preparation of both treated and untreated cells using modified RIPA buffer [NaCl (100mM), TrisCl (20mM, pH 7.4), EDTA (10 mM), TritonX-100 (0.5%), Glycerol (5%), Protease inhibitor cocktail (1x)] with gentle continuous rotation. The protein content of each WCL was estimated using Pierce™ BCA Protein Assay kit (Thermo-Scientific # 23225). The 100 µL of resuspended Dynabeads™ MyOne™ Streptavidin C1 (Invitrogen # 65001) were washed with PBST (PBS with 0.01% Tween™20) in a magnet stand as recommended in the manufacturer’s instructions. The washed beads were incubated with 200 µg of each WCL in separate tubes at room temperature for 2 h in a gentle end-over-end mixing. After incubation, beads were washed 3–5 times with PBST (0.01% Tween-20) on a magnetic stand and beads were decanted by after spinning and magnetization. The samples were stored at −80 °C till further analysis using LC-MS/MS by the Proteomics and Mass Spectrometry Core Laboratory of Augusta University."}, "[2]": {"test_system": "Eukaryotic initiation factor 4A (eIF4A)", "description": "as §1, §2"}, "[3]": {"biological_target": "Eukaryotic translation initiation factor 5B (eIF5B) (Mus musculus, UniProt Q05D44)", "description": "as §1, §2"}, "[4]": {"biological_target": "Ras GTPase-activating-like protein IQGAP1 (Mus musculus, UniProt Q9JKF1)", "sequence (Q9JKF1 whole entry)": "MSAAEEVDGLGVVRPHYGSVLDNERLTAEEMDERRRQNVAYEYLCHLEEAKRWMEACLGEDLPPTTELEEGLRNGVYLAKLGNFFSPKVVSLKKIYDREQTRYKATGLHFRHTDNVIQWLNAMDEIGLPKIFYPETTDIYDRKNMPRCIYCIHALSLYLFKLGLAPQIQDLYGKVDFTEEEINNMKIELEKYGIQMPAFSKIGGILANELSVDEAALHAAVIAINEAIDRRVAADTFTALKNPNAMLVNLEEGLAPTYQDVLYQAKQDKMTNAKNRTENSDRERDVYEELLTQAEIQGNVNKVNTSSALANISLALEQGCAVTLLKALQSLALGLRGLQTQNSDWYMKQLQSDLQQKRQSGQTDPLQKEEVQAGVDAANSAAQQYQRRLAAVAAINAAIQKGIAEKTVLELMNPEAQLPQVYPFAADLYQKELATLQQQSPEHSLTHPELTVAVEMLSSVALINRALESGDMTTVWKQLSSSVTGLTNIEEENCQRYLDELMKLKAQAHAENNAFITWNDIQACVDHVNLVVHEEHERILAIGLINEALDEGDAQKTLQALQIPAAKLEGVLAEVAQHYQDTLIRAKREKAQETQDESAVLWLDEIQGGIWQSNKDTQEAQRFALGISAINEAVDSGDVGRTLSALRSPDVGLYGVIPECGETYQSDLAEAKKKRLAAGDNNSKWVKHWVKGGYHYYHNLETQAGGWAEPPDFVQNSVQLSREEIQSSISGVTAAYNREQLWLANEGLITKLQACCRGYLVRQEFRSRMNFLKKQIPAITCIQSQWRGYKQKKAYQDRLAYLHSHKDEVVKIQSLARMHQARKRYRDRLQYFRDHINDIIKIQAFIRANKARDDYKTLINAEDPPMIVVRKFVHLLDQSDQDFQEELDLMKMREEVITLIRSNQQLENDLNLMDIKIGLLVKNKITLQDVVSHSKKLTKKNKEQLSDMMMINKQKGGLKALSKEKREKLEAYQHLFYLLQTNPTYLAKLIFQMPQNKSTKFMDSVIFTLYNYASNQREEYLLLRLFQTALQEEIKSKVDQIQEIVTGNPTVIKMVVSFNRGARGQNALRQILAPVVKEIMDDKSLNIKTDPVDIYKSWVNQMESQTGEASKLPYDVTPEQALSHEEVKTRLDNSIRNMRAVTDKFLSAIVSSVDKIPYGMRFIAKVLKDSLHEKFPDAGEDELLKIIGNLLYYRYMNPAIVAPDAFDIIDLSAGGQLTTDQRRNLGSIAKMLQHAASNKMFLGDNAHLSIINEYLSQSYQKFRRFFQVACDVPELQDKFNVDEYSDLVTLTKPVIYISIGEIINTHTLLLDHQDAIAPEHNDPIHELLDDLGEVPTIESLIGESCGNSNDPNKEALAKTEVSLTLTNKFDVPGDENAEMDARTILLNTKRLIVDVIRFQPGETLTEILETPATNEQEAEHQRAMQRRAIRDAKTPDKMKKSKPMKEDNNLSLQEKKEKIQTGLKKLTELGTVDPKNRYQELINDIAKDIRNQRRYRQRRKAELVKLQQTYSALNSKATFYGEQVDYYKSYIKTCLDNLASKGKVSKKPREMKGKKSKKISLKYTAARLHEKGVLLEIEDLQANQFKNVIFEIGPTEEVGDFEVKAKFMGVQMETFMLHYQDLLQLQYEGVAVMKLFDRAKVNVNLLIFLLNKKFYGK", "description": "as §1, §2"}, "[5]": {"biological_target": "T-complex protein 1 subunit theta (Mus musculus, UniProt P42932)", "description": "as §1, §2"}, "[6]": {"biological_target": "Heterogeneous nuclear ribonucleoprotein U (HNRNPU) (Mus musculus, UniProt Q8VEK3)", "description": "as §1, §2"}, "[7]": {"test_system": "Coiled-coil domain-containing protein", "description": "as §1, §2"}, "[8]": {"biological_target": "ATP synthase subunit O (Mus musculus, UniProt Q9DB20)", "description": "as §1, §2"}, "[9]": {"biological_target": "ATP synthase subunit beta (Mus musculus, UniProt P56480)", "description": "as §1, §2"}, "[10]": {"biological_target": "HSP 90-alpha (HSP90α) (Mus musculus, UniProt P07901)", "description": "as §1, §2"}, "[11]": {"biological_target": "Elongation factor 1-beta (EF1β) (Mus musculus, UniProt O70251)", "sequence (O70251 whole entry)": "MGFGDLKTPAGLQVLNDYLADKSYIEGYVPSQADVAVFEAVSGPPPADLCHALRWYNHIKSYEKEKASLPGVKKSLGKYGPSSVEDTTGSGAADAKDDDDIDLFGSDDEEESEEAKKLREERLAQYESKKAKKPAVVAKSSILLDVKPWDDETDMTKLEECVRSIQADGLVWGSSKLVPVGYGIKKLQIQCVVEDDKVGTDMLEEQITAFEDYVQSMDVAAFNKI", "description": "as §1, §2"}, "[12]": {"test_system": "Splicing factor U2AF 65 kDa subunit (U2AF65)", "description": "as §1, §2"}, "[13]": {"biological_target": "Histone H2A.Z (Mus musculus, UniProt P0C0S6)", "sequence (P0C0S6 whole entry)": "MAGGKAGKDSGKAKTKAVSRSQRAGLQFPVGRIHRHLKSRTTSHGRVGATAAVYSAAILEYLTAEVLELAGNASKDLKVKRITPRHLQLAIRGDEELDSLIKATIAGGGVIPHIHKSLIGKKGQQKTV", "description": "as §1, §2"}, "[14]": {"biological_target": "Elongation factor 1-delta (EF1δ) (Mus musculus, UniProt P57776)", "sequence (P57776 whole entry)": "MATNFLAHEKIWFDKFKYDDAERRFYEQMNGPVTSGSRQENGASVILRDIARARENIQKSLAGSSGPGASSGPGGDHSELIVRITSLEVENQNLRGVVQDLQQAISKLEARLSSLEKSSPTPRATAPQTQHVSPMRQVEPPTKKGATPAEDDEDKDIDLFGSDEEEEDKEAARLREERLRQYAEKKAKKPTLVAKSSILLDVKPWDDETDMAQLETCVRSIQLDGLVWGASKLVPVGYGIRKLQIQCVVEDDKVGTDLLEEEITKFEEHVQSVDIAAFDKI", "description": "as §1, §2"}, "[15]": {"biological_target": "HSP 90-beta (HSP90β) (Mus musculus, UniProt P11499)", "description": "as §1, §2"}, "[16]": {"biological_target": "Elongation factor 1-gamma (EF1γ) (Mus musculus, UniProt Q9D8N0)", "description": "as §1, §2"}, "[17]": {"biological_target": "Rab-like protein 6 (RABL6) (Mus musculus, UniProt Q5U3K5)", "description": "as §1, §2"}, "[18]": {"biological_target": "Histone H2B type 1-M (Mus musculus, UniProt P10854)", "description": "as §1, §2"}, "[19]": {"biological_target": "ATP synthase subunit alpha (Mus musculus, UniProt Q03265)", "description": "as §1, §2"}, "[20]": {"biological_target": "Histone H2A type 2-C (HIST2H2AC) (Mus musculus, UniProt Q64523)", "description": "as §1, §2"}, "[21]": {"test_system": "Eukaryotic translation initiation factor 2 (eIF2)", "description": "as §1, §2"}}}
{"compound": "CC1CCC2(C(=O)OCCCCOC(=O)CCCCC3SCC4NC(=O)NC43)CCC3(C)C(=CCC4C5(C)CCC(O)C(C)(C)C5CCC43C)C2C1C", "note": "[Compound 5c, 4-((5-((3aS,4S,6aR)-2-Oxohexahydro-1H-thieno [3,4-d]imidazol-4-yl)pentanoyl)oxy) butyl 3-hydroxy-urs-12-en-28-oate]", "values": [{"measurement": "Fold Change 10 min/Ctrl", "setting": "[1]", "result": 3.33}, {"measurement": "Fold Change 1 h/Ctrl", "setting": "[1]", "result": 4}, {"measurement": "Fold Change 10 min/Ctrl", "setting": "[2]", "result": 1}, {"measurement": "Fold Change 1 h/Ctrl", "setting": "[2]", "result": 3}, {"measurement": "Fold Change 10 min/Ctrl", "setting": "[3]", "result": 3}, {"measurement": "Fold Change 1 h/Ctrl", "setting": "[3]", "result": 2.75}, {"measurement": "Fold Change 10 min/Ctrl", "setting": "[4]", "result": 1}, {"measurement": "Fold Change 1 h/Ctrl", "setting": "[4]", "result": 3}, {"measurement": "Fold Change 10 min/Ctrl", "setting": "[5]", "result": 2}, {"measurement": "Fold Change 1 h/Ctrl", "setting": "[5]", "result": 3}, {"measurement": "Fold Change 10 min/Ctrl", "setting": "[6]", "result": 2.38}, {"measurement": "Fold Change 1 h/Ctrl", "setting": "[6]", "result": 2.13}, {"measurement": "Fold Change 10 min/Ctrl", "setting": "[7]", "result": 0}, {"measurement": "Fold Change 1 h/Ctrl", "setting": "[7]", "result": 0}, {"measurement": "Fold Change 10 min/Ctrl", "setting": "[8]", "result": 4}, {"measurement": "Fold Change 1 h/Ctrl", "setting": "[8]", "result": 5}, {"measurement": "Fold Change 10 min/Ctrl", "setting": "[9]", "result": 1.31}, {"measurement": "Fold Change 1 h/Ctrl", "setting": "[9]", "result": 1.82}, {"measurement": "Fold Change 10 min/Ctrl", "setting": "[10]", "result": 1.07}, {"measurement": "Fold Change 1 h/Ctrl", "setting": "[10]", "result": 1.25}, {"measurement": "Fold Change 10 min/Ctrl", "setting": "[11]", "result": 5}, {"measurement": "Fold Change 1 h/Ctrl", "setting": "[11]", "result": 5}, {"measurement": "Fold Change 10 min/Ctrl", "setting": "[12]", "result": 4}, {"measurement": "Fold Change 1 h/Ctrl", "setting": "[12]", "result": 3}, {"measurement": "Fold Change 10 min/Ctrl", "setting": "[13]", "result": 1.86}, {"measurement": "Fold Change 1 h/Ctrl", "setting": "[13]", "result": 1.20}, {"measurement": "Fold Change 10 min/Ctrl", "setting": "[14]", "result": 1.4}, {"measurement": "Fold Change 1 h/Ctrl", "setting": "[14]", "result": 2}, {"measurement": "Fold Change 10 min/Ctrl", "setting": "[15]", "result": 1.40}, {"measurement": "Fold Change 1 h/Ctrl", "setting": "[15]", "result": 1.71}, {"measurement": "Fold Change 1 h/Ctrl", "setting": "[16]", "result": 1}, {"measurement": "Fold Change 10 min/Ctrl", "setting": "[17]", "result": 3}, {"measurement": "Fold Change 1 h/Ctrl", "setting": "[17]", "result": 5.5}, {"measurement": "Fold Change 10 min/Ctrl", "setting": "[18]", "result": 2.04}, {"measurement": "Fold Change 1 h/Ctrl", "setting": "[18]", "result": 1.81}, {"measurement": "Fold Change 10 min/Ctrl", "setting": "[19]", "result": 1.26}, {"measurement": "Fold Change 1 h/Ctrl", "setting": "[19]", "result": 1.26}, {"measurement": "Fold Change 10 min/Ctrl", "setting": "[20]", "result": 1.58}, {"measurement": "Fold Change 1 h/Ctrl", "setting": "[20]", "result": 1.27}, {"measurement": "Fold Change 10 min/Ctrl", "setting": "[21]", "result": 2}, {"measurement": "Fold Change 1 h/Ctrl", "setting": "[21]", "result": 0}]}
